# Key:
# [1] = Aqueous solubility of the compound; format: physicochemical
# Glucocorticoid receptor [2] = target: T1, Glucocorticoid receptor (Homo sapiens, UniProt P04150); assay: Displacement of fluormone RED from human full length glucocorticoid receptor after 4 hrs by fluorescence polarization assay
# T1 sequence (P04150 whole entry): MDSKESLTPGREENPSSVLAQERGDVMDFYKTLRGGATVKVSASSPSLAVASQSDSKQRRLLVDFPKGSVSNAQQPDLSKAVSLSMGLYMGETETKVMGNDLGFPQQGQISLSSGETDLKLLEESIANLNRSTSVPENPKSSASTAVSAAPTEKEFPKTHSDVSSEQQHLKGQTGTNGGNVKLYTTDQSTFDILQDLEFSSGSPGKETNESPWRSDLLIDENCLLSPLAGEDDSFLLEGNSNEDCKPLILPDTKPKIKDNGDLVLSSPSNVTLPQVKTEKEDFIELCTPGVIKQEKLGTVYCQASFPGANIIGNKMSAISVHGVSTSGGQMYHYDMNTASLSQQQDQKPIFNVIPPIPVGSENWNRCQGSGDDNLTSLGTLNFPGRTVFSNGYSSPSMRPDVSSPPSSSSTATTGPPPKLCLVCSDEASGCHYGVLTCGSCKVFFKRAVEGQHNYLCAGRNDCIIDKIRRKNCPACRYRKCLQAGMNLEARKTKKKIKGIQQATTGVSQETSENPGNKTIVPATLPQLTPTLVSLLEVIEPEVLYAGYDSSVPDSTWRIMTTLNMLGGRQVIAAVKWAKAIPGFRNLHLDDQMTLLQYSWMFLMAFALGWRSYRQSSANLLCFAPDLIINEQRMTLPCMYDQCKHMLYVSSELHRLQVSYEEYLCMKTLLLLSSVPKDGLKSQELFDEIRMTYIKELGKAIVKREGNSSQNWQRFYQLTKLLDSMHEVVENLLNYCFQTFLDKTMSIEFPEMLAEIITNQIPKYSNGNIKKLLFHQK
# Glucocorticoid receptor [3] = target: T1, Glucocorticoid receptor
# Description: Transrepression activity at glucocorticoid receptor (unknown origin) expressed in human ChaGoK1 cells assessed as inhibition of PMA-stimulated gene expression incubated for 24 hrs by beta-galactosidase reporter gene assay
# Glucocorticoid receptor [4] = target: T1, Glucocorticoid receptor; remark: listed apart in the source
# Description: Transactivation activity at glucocorticoid receptor (unknown origin) expressed in human ChaGoK1 cells incubated for 24 hrs by beta-galactosidase reporter gene assay
# Glucocorticoid receptor [5] = target: T1, Glucocorticoid receptor; assay: Antagonist activity at glucocorticoid receptor (unknown origin) expressed in human ChaGoK1 cells assessed as inhibition of dexamethasone induced transactivation incubated for 24 hrs by beta-galactosidase reporter gene assay; format: cell-based
# Hepatocyte [6] = assay: Stability in human hepatocytes; format: ADME, cell-based
# Hepatocyte [7] = assay: Stability in rat hepatocytes; format: ADME, cell-based
# [8] = Intrinsic clearance in rat hepatocytes assessed per million cells; format: ADME, cell-based, Hepatocyte; settings: read-out: CLH
# [9] = Clearance in rat; format: ADME, organism-based; settings: in vivo
# Glucocorticoid receptor [10] = target: T1, Glucocorticoid receptor; remark: listed apart in the source
# Description: (§1) Transrepression of GR in human whole blood assessed as inhibition of LPS-induced TNF-alpha release preincubated for 45 mins followed by LPS addition after 18 hrs by AlphaLISA method
# Glucocorticoid receptor [11] = target: T1, Glucocorticoid receptor; settings: blood
# Description: Therapeutic index, ratio of fIC20 for transrepression of GR in cryopreserved human fetal osteoblasts assessed as inhibition of OPG mRNA expression to fIC30 for transrepression of GR in human whole blood assessed as inhibition of LPS-induced TNF-alpha release
# [12] = target: T2, Glucocorticoid receptor (Homo sapiens) (UniProt P04150)
# T2 sequence (whole entry): T1 sequence (P04150 whole entry)
# Description: as §1
# [13] = target: T2, Glucocorticoid receptor (Homo sapiens); remark: listed apart in the source
# Description: Transrepression of GR in cryopreserved human fetal osteoblasts assessed as inhibition of OPG mRNA expression after 4 hrs by RT-qPCR analysis
SMILES,"solubility ([1]; aqueous, read-out: solubility) [µM]",IC50 (Glucocorticoid receptor [2]) [nM],IC50 (Glucocorticoid receptor [3]) [nM],EC50 (Glucocorticoid receptor [4]) [nM],IC50 (Glucocorticoid receptor [5]) [nM],other results
Cn1cc(-n2ncc3cc(O[C@H](c4ccccc4)[C@H](CC4CC4)NC(=O)C(C)(F)F)ccc32)ccc1=O,20,,,,,
COc1ccc(-n2ncc3cc(O[C@H](c4ccccc4)[C@@H](NC(=O)C(C)(F)F)C(C)C)ccc32)cn1,< 0.5,57,,,,
CC(C)[C@H](NC(=O)C(C)(F)F)[C@H](Oc1ccc2c(cnn2-c2cnc(=O)n(C)c2)c1)c1ccccc1,5.1,,51,87,,
CC(C)[C@H](NC(=O)C(C)(F)F)[C@H](Oc1ccc2c(cnn2-c2cc(C#N)c(=O)n(C)c2)c1)c1ccccc1,11,7.2,27,110,,
Cn1cc(-n2ncc3cc(O[C@H](c4ccccc4)[C@@H](NC(=O)C(C)(F)F)C4CC4)ccc32)ccc1=O,48,,,,,
CC(C)[C@H](NC(=O)C(C)(F)F)[C@H](Oc1ccc2c(cnn2-c2cscn2)c1)c1ccccc1,5.8,52,3.3,29,131,
C[C@H](NC(=O)C(C)(F)F)[C@H](Oc1ccc2c(cnn2-c2ccc(=O)n(C)c2)c1)c1ccccc1,140,,1.6,2.3,,
COc1ccc([C@@H](Oc2ccc3c(cnn3-c3ccc(F)cc3)c2)[C@H](Cc2ccccc2)NC(=O)C(C)(F)F)cn1,< 0.1,32,2,8.7,92,
C[C@H](NC(=O)C(C)(F)F)[C@H](Oc1ccc(C#N)cc1Br)c1cnc(C2CC2)nc1,110,2.4,1.1,6.4,,Stability (Hepatocyte [6]): Stable; Stability (Hepatocyte [7]): Stable
CC(C)[C@H](NC(=O)C(F)(F)F)[C@H](Oc1ccc2c(cnn2-c2ccc(F)cc2)c1)c1ccccc1,< 0.1,16,< 0.42,5.4,25,
CC(C)[C@H](NC(=O)C(C)(F)F)[C@H](Oc1ccc2c(cnn2-c2ccc(F)cc2)c1)c1ccccc1,< 0.08,< 14,< 0.34,3.9,13,
CCC[C@H](NC(=O)C(C)(F)F)[C@H](Oc1ccc2c(cnn2-c2ccc(=O)n(C)c2)c1)c1ccccc1,22,,,,,
C[C@H](NC(=O)C(C)(F)F)[C@H](Oc1ccc(C#N)cc1Cl)c1cnc(C2CC2)nc1,430,< 4.1,7.8,21,,hepatocyte CLint [8]: 3.4 µL/min/1e6 cells; clearance [9]: 7.3 mL/min/kg
C[C@H](NC(=O)C(F)(F)F)[C@H](Oc1ccc(C#N)cc1Br)c1cnc(C2CC2)nc1,97,2.4,2.5,23,,Stability (Hepatocyte [6]): Stable; Stability (Hepatocyte [7]): Stable
CC(C)[C@H](NC(=O)C(C)(F)F)[C@H](Oc1ccc2c(cnn2-c2ccc(=O)n(C)c2)c1)c1cccc(Cl)c1,10,2.6,1.7,2.9,324,
CCS(=O)(=O)c1cc2cc(C[C@](O)(CC(C)(C)c3ccc(F)cc3C(N)=O)C(F)(F)F)[nH]c2cn1 [BI 653048],,,,,,solubility ([1]; buffer): 160 µM
COc1ccc([C@@H](Oc2ccc(C#N)cc2)[C@H](C)NC(=O)C(C)(F)F)cn1,290,< 6.8,70,,,

SMILES,"solubility ([1]; aqueous, read-out: solubility) [µM]",IC50 (Glucocorticoid receptor [2]) [nM],IC50 (Glucocorticoid receptor [3]) [nM],EC50 (Glucocorticoid receptor [4]) [nM],IC50 (Glucocorticoid receptor [5]) [nM],other results
COc1ccc([C@@H](Oc2ccc3c(cnn3-c3ccc(F)cc3)c2)[C@H](C)NC(=O)C2CC2)cn1,1,,,,,
COc1ccc([C@@H](Oc2ccc(C#N)cc2Cl)[C@H](C)NC(=O)C(C)(F)F)cn1,85,7.1,16,43,,hepatocyte CLint [8]: 93 µL/min/1e6 cells; clearance [9]: 22 mL/min/kg
N#Cc1ccc(O[C@H](c2cnc(C3CC3)nc2)[C@H](CO)NC(=O)C(F)(F)F)c(Br)c1,> 730,42,,,,
CC(C)[C@H](NC(=O)C(C)(F)F)[C@H](Oc1ccc2c(cnn2-c2cccn(C)c2=O)c1)c1ccccc1,160,6.1,11,27,,
CC(C)(C)OC[C@H](NC(=O)C(F)(F)F)[C@H](Oc1ccc(C#N)cc1Br)c1cnc(C2CC2)nc1,18,160,,,516,Stability (Hepatocyte [6]): Stable; Stability (Hepatocyte [7]): Stable
COc1ccc([C@@H](Oc2ccc3c(cnn3-c3ccc(F)cc3)c2)[C@H](COC(C)(C)C)NC(=O)C(C)(F)F)cn1,< 0.01,,,,,
N#Cc1ccc(O[C@H](c2cnc(C3CC3)nc2)[C@@H](NC(=O)C(F)(F)F)C2CC2)c(Br)c1,86,14,21,,221,Stability (Hepatocyte [6]): Stable; Stability (Hepatocyte [7]): Stable; IC50 (Glucocorticoid receptor [10]): 340 nM; TI (Glucocorticoid receptor [11]): 0.014; fIC30 [12]: 36 nM; fIC20 [13]: 0.5 nM
CC(C)[C@H](NC(=O)C(C)(F)F)[C@H](Oc1ccc2c(cnn2-c2ccns2)c1)c1ccccc1,0.96,,39,,,
CC(O)[C@H](NC(=O)C(C)(F)F)[C@H](Oc1ccc2c(cnn2-c2ccc(=O)n(C)c2)c1)c1ccccc1 (stereo not given in full),250,,,,,
CC(C)[C@H](NC(=O)C(C)(F)F)[C@H](Oc1ccc2c(cnn2-c2cc(F)c(=O)n(C)c2)c1)c1ccccc1,14,< 3.2,5.6,18,301,
CC[C@H](NC(=O)C(F)(F)F)[C@H](Oc1ccc(C#N)cc1Br)c1cnc(C2CC2)nc1,110,9.3,9.6,54,560,Stability (Hepatocyte [6]): Stable; Stability (Hepatocyte [7]): Stable
CC[C@H](NC(=O)C(C)(F)F)[C@H](Oc1ccc2c(cnn2-c2ccc(=O)n(C)c2)c1)c1ccccc1,51,,,,,
Cc1ncccc1NC(=O)c1ccc2c(c1)CC[C@@H]1C[C@@](O)(C(F)(F)F)CC[C@@]21Cc1ccccc1 [DAGROCORAT],3.2,< 7.2,0.69,4.8,8.9,IC50 (Glucocorticoid receptor [10]): 35 nM; TI (Glucocorticoid receptor [11]): 0.029; fIC30 [12]: 2.3 nM; fIC20 [13]: 0.0667 nM
CC#C[C@]1(O)CC[C@H]2[C@@H]3CCC4=CC(=O)CCC4=C3[C@@H](c3ccc(N(C)C)cc3)C[C@@]21C [MIFEPRISTONE],6.9,,,,,
COc1ccc([C@@H](Oc2ccc3c(cnn3-c3ccc(F)cc3)c2)[C@@H](NC(=O)C(C)(F)F)C(C)C)cn1,< 0.01,18,0.57,3.5,70,
CC(C)[C@H](NC(=O)C(C)(F)F)[C@H](Oc1ccc2c(cnn2-c2ccc(=O)n(C)c2)c1)c1cc(F)cc(F)c1,21,4.7,2.2,2.7,23,IC50 (Glucocorticoid receptor [10]): 120 nM; TI (Glucocorticoid receptor [11]): 0.17; fIC30 [12]: 0.7 nM; fIC20 [13]: 0.12 nM
CC(C)[C@H](NC(=O)C(F)(F)F)[C@H](Oc1ccc2c(cnn2-c2ccc(=O)n(C)c2)c1)c1cccc(Cl)c1,9.6,< 3,3,5.6,114,IC50 (Glucocorticoid receptor [10]): 420 nM; TI (Glucocorticoid receptor [11]): 0.58; fIC30 [12]: 1.6 nM; fIC20 [13]: 0.92 nM
